Patent publication US10550089B2, “Inhibitors of protease-activated receptor-2” (Heptares Therapeutics Limited, priority 2016, dated 2020)

What was measured:
PAR2 [1] = target: T1, PAR2 (Homo sapiens (Human), UniProt P55085); assay: FLPR dissociation rate assay (PAR2 mean residence time); type: cell-based; conditions: cells washed after compound incubation (60-240 min); peptide agonist SLIGLR-NH2; read-out: FLPR Residence time t1/2
Text: FLPR Dissociation Rate Assay: Protocol for Testing Compounds for PAR2 Mean Residence Time
The peptide agonist SLIGLR-NH2 (ECso) was used in place of trypsin.

PAR2 [2] = target: T1, PAR2; assay: IP-One HTRF assay for PAR2 antagonist activity (IP1 production); type: cell-based
Experimental: Protocol for Testing Compounds for PAR2 Antagonist Activity Using an IP-One HTRF Assay
Inositol monophosphate (IP1) production were measured in 1321N1 cells stably expressing human PAR2 using an IP-One HTRF assay kit (Cisbio). […] After 60 min at 37° C. cells were lysed and IP1 concentrations were detected according to the manufacturers protocol (Cisbio). Data were normalized to IP1 concentrations using a IP1 standard curve according to the manufacturers protocol (Cisbio).

PAR2 [3] = target: T1, PAR2; assay: Trypsin activated FLPR Ca2+ mobilization assay for PAR2 antagonist activity; type: cell-based
Experimental: Trypin Activated FLPR Assay:
Protocol for Testing Compounds for PAR2 Antagonist Activity Using a Ca2+ Mobilization Assay
Calcium mobilization was measured using 1321N1 cells stably expressing human PAR2. Cells were seeded in 384-well plates at 4,000 cells per well in 20 μl DMEM with Glutamax supplemented with 10% FBS and incubated for 18-24 h at 37° C., 5% CO2 and 95% humidity. […] The addition was done using a FLIPR^TETRA (384-well head, Molecular Devices) and the response was read simultaneously to detect any agonist activity.

PAR1 = PAR1 (Homo sapiens (Human), UniProt P25116); assay: β-arrestin type assay by DiscoverX against PAR1
Chain of PAR1 (P25116 22-425): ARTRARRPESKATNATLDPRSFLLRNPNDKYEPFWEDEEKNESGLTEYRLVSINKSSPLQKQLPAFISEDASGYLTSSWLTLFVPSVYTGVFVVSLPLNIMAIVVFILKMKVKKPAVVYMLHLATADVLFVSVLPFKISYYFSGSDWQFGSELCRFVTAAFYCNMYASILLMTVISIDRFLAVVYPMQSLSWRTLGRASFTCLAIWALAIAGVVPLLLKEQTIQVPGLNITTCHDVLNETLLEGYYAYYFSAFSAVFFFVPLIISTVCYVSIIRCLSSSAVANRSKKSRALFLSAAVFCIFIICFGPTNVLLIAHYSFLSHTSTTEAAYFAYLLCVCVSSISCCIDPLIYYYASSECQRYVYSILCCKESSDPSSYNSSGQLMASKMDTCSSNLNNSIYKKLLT

[4] = hPAR2 IPpone IC50 (μM), 1321N1 cells stably expressing human PAR2, agonist SLIGRL-NH2
[5] = hPAR2 FLPR (Trypsin) IC50 (μM), 1321N1 cells stably expressing human PAR2, agonist Trypsin, Vorapaxar present to block PAR1
[6] = 1321N1 cells stably expressing human PAR2, agonist SLIGRL-NH2, read-out: hPAR2 IPpone IC50
[7] = 1321N1 cells stably expressing human PAR2, agonist Trypsin, Vorapaxar present to block PAR1, read-out: hPAR2 FLPR (Trypsin) IC50

T1 sequence (P55085 26-397): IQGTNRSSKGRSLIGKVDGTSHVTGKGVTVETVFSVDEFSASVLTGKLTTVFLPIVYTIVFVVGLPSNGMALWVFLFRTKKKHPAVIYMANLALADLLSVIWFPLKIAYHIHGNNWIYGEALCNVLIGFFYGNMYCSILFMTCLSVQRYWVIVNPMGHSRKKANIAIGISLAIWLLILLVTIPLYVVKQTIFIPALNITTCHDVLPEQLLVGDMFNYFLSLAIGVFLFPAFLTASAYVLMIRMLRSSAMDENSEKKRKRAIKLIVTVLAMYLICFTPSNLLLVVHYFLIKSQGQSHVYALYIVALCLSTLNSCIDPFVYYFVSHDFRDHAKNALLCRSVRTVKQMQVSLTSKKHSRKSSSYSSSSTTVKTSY

Compound | residence time (PAR2 [1]) | IC50 (PAR2 [2]; [6]) | IC50 (PAR2 [3]; [7]) | other results
CCc1coc2c(F)ccc([C@H](O)c3ncc[nH]3)c12 (single isomer, unassigned) [Example 42] | 119 min |  |  | IC50 (PAR2 [2]; [4]): 0.33 µM; IC50 (PAR2 [3]; [5]): 3.09 µM
CCc1ccc2c(F)ccc(C(O)c3ncc[nH]3)n12 (single isomer, unassigned) [Example 35, (3-Ethyl-8-fluoroindolizin-5-yl)(1H-imidazol-2-yl)methanol] |  |  |  | IC50 (PAR1): > 50 µM
CCCc1cc(F)ccc1[C@H](O)c1ncc[nH]1 [Example 3, (S)-(4-Fluoro-2-propylphenyl)(1H-imidazol-2-yl)methanol] | 62 min | 1.29 µM | 3.92 µM | IC50 (PAR1): > 50 µM
OC(c1ncc[nH]1)c1ccc(F)cc1N1CCCC1 (single isomer, unassigned) [Example 16, (4-Fluoro-2-(pyrrolidin-1-yl)phenyl)(1H-imidazol-2-yl)methanol] | 161 min |  |  | IC50 (PAR2 [2]; hPAR2 IPpone IC50 (μM)): 0.96 µM; IC50 (PAR2 [3]; hPAR2 FLPR (Trypsin) IC50 (μM)): 10.1 µM
OC(c1ncc[nH]1)c1ccc(F)cc1-c1cocn1 (centres unmarked) [Example 32, (4-Fluoro-2-(oxazol-4-yl)phenyl)(1H-imidazol-2-yl)methanol] |  | 14.3 µM | 30.6 µM | 
OC(c1ncc[nH]1)c1ccc(F)cc1N1CCCC1 (centres unmarked) [Example 14, (4-Fluoro-2-(pyrrolidin-1-yl)phenyl)(1H-imidazol-2-yl)methanol] |  |  |  | IC50 (PAR2 [2]; hPAR2 IPpone IC50 (μM)): 1.52 µM; IC50 (PAR2 [3]; hPAR2 FLPR (Trypsin) IC50 (μM)): 16.9 µM
CCCc1c(C(O)c2ncc[nH]2)ccc(F)c1F (single isomer, unassigned) [Example 12, (3,4-Difluoro-2-propylphenyl)(1H-imidazol-2-yl)methanol] |  | 4 µM | 4.9 µM | 
CCCc1c(Cl)cccc1C(O)c1ncc[nH]1 (centres unmarked) [Example 13, (3-Chloro-2-propylphenyl)(1H-imidazol-2-yl)methanol] |  |  |  | IC50 (PAR2 [2]; [4]): 5.45 µM; IC50 (PAR2 [3]; [5]): 12.4 µM
C/C=C\c1cc(F)ccc1C(O)c1ncc[nH]1 (centres unmarked) [Example 9, (Z)-(4-Fluoro-2-(prop-1-enyl)phenyl)(1H-imidazol-2-yl)methanol] |  | 9.66 µM | 6.26 µM | 
Cc1ccc2c(F)ccc(C(O)c3ncc[nH]3)n12 (centres unmarked) [Example 37, (8-Fluoro-3-methylindolizin-5-yl)(1H-imidazol-2-yl)methanol] |  | 0.97 µM | 3.27 µM | 
